Here are results for 22 compounds from ChEMBL document CHEMBL1134533, “Design, synthesis, computational prediction, and biological evaluation of ester soft drugs as inhibitors of dihydrofolate reductase from Pneumocystis carinii” (J Med Chem, 2001).

The target in experiment [1] is T1, Bifunctional dihydrofolate reductase-thymidylate synthase (Toxoplasma gondii, UniProt Q07422).
T1 sequence (Q07422 whole entry): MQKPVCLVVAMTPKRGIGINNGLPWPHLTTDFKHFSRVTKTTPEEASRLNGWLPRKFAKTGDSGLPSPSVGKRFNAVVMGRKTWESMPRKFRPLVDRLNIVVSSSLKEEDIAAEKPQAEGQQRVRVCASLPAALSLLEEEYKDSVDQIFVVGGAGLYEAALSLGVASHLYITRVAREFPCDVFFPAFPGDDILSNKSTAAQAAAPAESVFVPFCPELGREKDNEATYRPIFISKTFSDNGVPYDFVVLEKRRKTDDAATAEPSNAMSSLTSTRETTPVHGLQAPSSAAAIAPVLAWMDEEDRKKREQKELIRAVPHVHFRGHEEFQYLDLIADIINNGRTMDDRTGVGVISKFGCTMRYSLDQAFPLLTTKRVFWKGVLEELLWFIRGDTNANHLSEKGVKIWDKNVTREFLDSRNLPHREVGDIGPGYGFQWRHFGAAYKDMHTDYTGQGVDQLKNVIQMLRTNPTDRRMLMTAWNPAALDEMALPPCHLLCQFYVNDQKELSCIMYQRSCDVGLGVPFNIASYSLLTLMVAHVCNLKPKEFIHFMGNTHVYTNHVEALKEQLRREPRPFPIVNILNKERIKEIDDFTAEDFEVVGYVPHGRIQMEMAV
Description: Inhibitory concentration against dihydrofolate reductase DHFR from Toxoplasma gondii

Experiment [2] addresses T2, Dihydrofolate reductase (Pneumocystis carinii, UniProt P16184).
T2 sequence (P16184 whole entry): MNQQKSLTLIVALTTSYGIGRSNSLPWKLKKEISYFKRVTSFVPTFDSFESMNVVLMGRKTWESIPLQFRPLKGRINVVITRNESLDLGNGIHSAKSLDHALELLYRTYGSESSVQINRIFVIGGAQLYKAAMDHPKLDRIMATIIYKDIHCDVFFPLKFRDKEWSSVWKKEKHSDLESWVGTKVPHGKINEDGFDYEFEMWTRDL
Description: Inhibitory concentration against dihydrofolate reductase dihydrofolate reductase from Pneumocystis carinii.

The target of experiment [3] is T3, Dihydrofolate reductase (Rattus norvegicus, UniProt Q920D2).
T3 sequence (Q920D2 whole entry): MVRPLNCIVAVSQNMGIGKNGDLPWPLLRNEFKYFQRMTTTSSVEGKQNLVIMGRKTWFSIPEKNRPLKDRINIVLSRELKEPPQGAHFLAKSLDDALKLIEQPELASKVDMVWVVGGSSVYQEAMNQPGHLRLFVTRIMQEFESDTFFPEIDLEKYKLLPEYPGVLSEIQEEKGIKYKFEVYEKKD
Description: Inhibitory concentration against dihydrofolate reductase DHFR from rat liver.

Experiment [4] deals with T4, Bifunctional dihydrofolate reductase-thymidylate synthase (Toxoplasma gondii) (UniProt Q07422).
T4 sequence (whole entry): T1 sequence (Q07422 whole entry)
The experiment in a line: Inhibitory activity against dihydrofolate reductase DHFR from Toxoplasma gondii at 32 uM concentration.

The target of experiment [5] is T5, Dihydrofolate reductase (Pneumocystis carinii) (UniProt P16184).
T5 sequence (whole entry): T2 sequence (P16184 whole entry)
The experiment in a line: Inhibitory activity against dihydrofolate reductase dihydrofolate reductase from Pneumocystis carinii. at 32 uM concentration.

The target in experiment [6] is T6, Dihydrofolate reductase (Rattus norvegicus) (UniProt Q920D2).
T6 sequence (whole entry): T3 sequence (Q920D2 whole entry)
The experiment in a line: Inhibitory activity against dihydrofolate reductase DHFR from rat liver at 32 uM concentration.

Experiment [7] deals with T4, Bifunctional dihydrofolate reductase-thymidylate synthase (Toxoplasma gondii). The experiment in a line: Inhibitory activity against dihydrofolate reductase DHFR from Toxoplasma gondii at 51 uM concentration.
Experiment [8] deals with T6, Dihydrofolate reductase (Rattus norvegicus). The experiment in a line: Inhibitory activity against dihydrofolate reductase DHFR from rat liver at 51 uM concentration.
The target in experiment [9] is T5, Dihydrofolate reductase (Pneumocystis carinii). Put plainly: Inhibitory activity against dihydrofolate reductase dihydrofolate reductase from Pneumocystis carinii. at 51 uM concentration.
Experiment [10] deals with T4, Bifunctional dihydrofolate reductase-thymidylate synthase (Toxoplasma gondii). The experiment in a line: Relative activity against dihydrofolate reductase DHFR from Toxoplasma gondii.
The nature of experiment [11]: Ratio of the IC50 values for rlDHFR of the metabolite and pcDHFR of the soft drug.
For experiment [12], the target named is T5, Dihydrofolate reductase (Pneumocystis carinii). Put plainly: Inhibitory activity against dihydrofolate reductase dihydrofolate reductase from Pneumocystis carinii. at 104 uM concentration.
Experiment [13] concerns the target T4, Bifunctional dihydrofolate reductase-thymidylate synthase (Toxoplasma gondii). Put plainly: Inhibitory activity against dihydrofolate reductase DHFR from Toxoplasma gondii at 104 uM concentration.
Experiment [14] concerns the target T6, Dihydrofolate reductase (Rattus norvegicus). The experiment in a line: Inhibitory activity against dihydrofolate reductase DHFR from rat liver at 104 uM concentration.

In general, IC50 refers to the point on the concentration scale where inhibition reaches its midpoint. A higher IC50 goes with weaker potency in that assay. Take `CN(Cc1ccc2nc(N)nc(N)c2c1)c1ccccc1`: the figures for the IC50 (in [1]; against Dihydrofolate reductase [2]; on Dihydrofolate reductase [3]) were 11 nM, 96 nM and 69 nM, respectively.
In the case of `Nc1nc(N)c2nc(COC(=O)c3ccccc3)cnc2n1`, the IC50 in [1] turned out to be 5800 nM; at Dihydrofolate reductase [2], 9800 nM; against Dihydrofolate reductase [3], 7000 nM.
`COc1ccc(OC)c(Cc2cnc3nc(N)nc(N)c3c2C)c1` [PIRITREXIM] yielded an IC50 against Dihydrofolate reductase [3] of 4.4 nM.
A word on the inhibition: it is the percentage by which the read-out fell short of the control. `Nc1nc(N)c2cc(C(=O)O)ccc2n1`: the inhibition in [4] turned out to be 16%; in experiment [5] it was 11%; in experiment [6], 3%.
Take `COc1ccc(C(=O)OCc2ccc3nc(N)nc(N)c3c2)c(OC)c1OC`: the IC50 in [1] turned out to be 140 nM; against Dihydrofolate reductase [2], 1400 nM; against Dihydrofolate reductase [3], 500 nM.
Taken in the same sequence, the figures for `COc1ccc(OC)c(C(=O)OCc2ccc3nc(N)nc(N)c3c2)c1` were 220 nM, 2400 nM and 420 nM.
For `Nc1nc(N)c2cc(/C=C/C(=O)Oc3ccccc3)ccc2n1`, the IC50 in experiment [1] was determined as 189 nM; against Dihydrofolate reductase [3], 1290 nM.
Take `Nc1nc(N)c2cc(COC(=O)c3ccccc3)cnc2n1`: the IC50 in experiment [1] was 1900 nM; against Dihydrofolate reductase [2] it was 5450 nM; against Dihydrofolate reductase [3] it was 3900 nM.
Regarding `Nc1nc(N)c2nc(CO)cnc2n1`, the inhibition in experiment [7] amounted to 12%; in experiment [8], 2%; in [9], 10%.
On to `Nc1nc(N)c2cc(C(=O)OCc3ccccc3)ccc2n1`, for which the half-inhibitory concentration (IC50) in [1] was 360 nM; on Dihydrofolate reductase [2] it was 2500 nM; against Dihydrofolate reductase [3] it was 420 nM. Further, the Relative IC50 in experiment [10] was determined as 1.2.
On to `Nc1nc(N)c2cc(COC(=O)Cc3ccccc3)ccc2n1`, for which the results for the IC50 (in experiment [1]; on Dihydrofolate reductase [3]) were 1900 nM and 2300 nM, respectively.
Regarding `Cc1c(COC(=O)c2ccccc2)cnc2nc(N)nc(N)c12`, the IC50 in experiment [1] came to 56 nM; against Dihydrofolate reductase [2], 250 nM; against Dihydrofolate reductase [3], 230 nM. In addition, the Ratio in experiment [11] is 33.
Turning to `Nc1nc(N)c2cc(CNc3ccccc3)ccc2n1`, the results for the IC50 (in [1]; against Dihydrofolate reductase [2]; at Dihydrofolate reductase [3]) were 100 nM, 980 nM and 440 nM, respectively.
Regarding `COc1cc(OC)cc(C(=O)OCc2ccc3nc(N)nc(N)c3c2)c1`, the IC50 in experiment [1] was 150 nM; against Dihydrofolate reductase [2], 460 nM; on Dihydrofolate reductase [3] it was 350 nM.
In the case of `Cc1c(CO)cnc2nc(N)nc(N)c12`, the IC50 was 3200 nM in experiment [1] and 8500 nM at Dihydrofolate reductase [3].
Take `Nc1nc(N)c2cc(COC(=O)c3ccccc3)ccc2n1`: the concentration for half-maximal inhibition (IC50) is 99 nM in experiment [1], 600 nM against Dihydrofolate reductase [2] and 390 nM at Dihydrofolate reductase [3]. The Relative IC50 in [10] is 3.9. The Ratio in experiment [11] is 67.
As for `COc1cc(C(=O)OCc2ccc3nc(N)nc(N)c3c2)cc(OC)c1OC`, the IC50 is 50 nM in [1], 560 nM on Dihydrofolate reductase [2] and 26 nM against Dihydrofolate reductase [3]. The Relative IC50 in experiment [10] worked out at 0.51.
On to `Nc1nc(N)c2cc(COC(=O)c3ccc(C(=O)O)cc3)ccc2n1`, for which the IC50 (in [1]; at Dihydrofolate reductase [2]) was 1000 nM each time.
Regarding `COc1ccc(C(=O)OCc2ccc3nc(N)nc(N)c3c2)cc1OC`, the IC50 amounted to 66 nM in experiment [1], 510 nM at Dihydrofolate reductase [2] and 110 nM on Dihydrofolate reductase [3].
On to `COc1cc(NCc2ccc3nc(N)nc(N)c3c2C)cc(OC)c1OC` [TRIMETREXATE], for which the IC50 on Dihydrofolate reductase [3] was found to be 8 nM.
For `Nc1nc(N)c2cc(CO)cnc2n1`, the inhibition worked out at 17% in experiment [12], 9% in experiment [13] and 19% in experiment [14].
Take `Nc1nc(N)c2cc(CO)ccc2n1`: the values for the IC50 (in experiment [1]; at Dihydrofolate reductase [3]) were 44900 nM and 40300 nM, respectively.
